Test results taken from US7087634B2, “Cyclic AMP-specific phosphodiesterase inhibitors” (ICOS Corporation, priority 1999, dated 2006).

Tests used:
PDE1B = target: T1, PDE1B (Homo sapiens, UniProt Q01064); assay: Inhibition of PDE1B; format: biochemical
T1 construct: made in house; host or cells: Saccharomyces cerevisiae BJ2-54

PDE1C = target: T2, PDE1C (Homo sapiens, UniProt Q14123); assay: Inhibition of PDE1C; format: biochemical
T2 construct: Plasmid Hcam3aBB contained the complete open reading frame of PDE1C3; made in house; host or cells: Sf9 (baculovirus)

PDE3A = target: T3, PDE3A (Homo sapiens, UniProt Q14432); assay: Inhibition of PDE3A; format: biochemical
T3 construct: Plasmid pBB-PDE3A contained the complete open reading frame of PDE3A; made in house; host or cells: Sf9 (baculovirus)

PDE5 = target: T4, PDE5 (Homo sapiens, UniProt O76074); assay: Inhibition of PDE5; format: biochemical
T4 construct: made in house; host or cells: Saccharomyces cerevisiae BJ2-54
Procedure: Recombinant production of human PDE1B, PDE2, PDE4A, PDE4B, PDE4C, PDE4D, PDE5, and PDE7 was carried out similarly to that described in Example 7 of U.S. Pat. No. 5,702,936, incorporated herein by reference, except that the yeast transformation vector employed, which is derived from the basic ADH2 plasmid described in Price et al., Methods in Enzymology, 185, pp. 308–318 (1990), incorporated yeast ADH2 promoter and terminator sequences and the Saccharomyces cerevisiae host was the protease-deficient strain BJ2–54 deposited on Aug. 31, 1998 with the American Type Culture Collection, Manassas, Va., under accession number ATCC 74465. Transformed host cells were grown in 2×SC-leu medium, pH 6.2, with trace metals, and vitamins. After 24 hours, YEP medium-containing glycerol was added to a final concentration of 2×YET/3% glycerol. […]
Phosphodiesterase activity of the preparations was determined as follows. […] The [32P]5′-AMP or [32P]5′-GMP then was quantitatively converted to free [32P]phosphate and unlabeled adenosine or guanosine by the action of snake venom 5′-nucleotidase. […] PDE enzyme was present in quantities that yield <30% total hydrolysis of substrate (linear assay conditions). […] After centrifugation (750×g for 3 minutes) to sediment the charcoal, a sample of the supernatant was taken for radioactivity determination in a scintillation counter and the PDE activity was calculated. […]

serum TNFα = assay: Combined mouse endotoxin-stimulated TNFα release assay (serum TNFα); format: in vivo; conditions: female Balb/c mice, i.p., LPS model
Procedure: The purpose of this study was to determine the efficacy of PDE4 inhibitors in vivo in an LPS mouse model together with a determination with respect to central nervous system (CNS) side-effects manifested by a decrease in spontaneous mobility.
The test animals were female Balb/c mice, having an average weight of about 20 g. The PDE4 inhibitors, formulated in 30% Cremophor® EL, were administered via intraperitoneal (i.p.) injections at doses of 0.1, 1.0, 10.0, and 100 mg/kg. Individual dose volumes (about 150 μL) were adjusted based on the body weights measured. One hour later, 5 mg/kg LPS in a final volume of 200 μL was injected via the tail vein to each animal. Ninety minutes following the LPS treatment, the animals were bled and serum samples were collected before being stored at −70° C. until assayed.
For efficacy determination, the serum samples were diluted two-fold and TNFα levels were determined using the CYTOSCREEN® Immunoassay Kit (Biosource International). The data were averaged between triplicate sample subjects for each of the tested compounds.

T3 sequence (Q14432 whole entry): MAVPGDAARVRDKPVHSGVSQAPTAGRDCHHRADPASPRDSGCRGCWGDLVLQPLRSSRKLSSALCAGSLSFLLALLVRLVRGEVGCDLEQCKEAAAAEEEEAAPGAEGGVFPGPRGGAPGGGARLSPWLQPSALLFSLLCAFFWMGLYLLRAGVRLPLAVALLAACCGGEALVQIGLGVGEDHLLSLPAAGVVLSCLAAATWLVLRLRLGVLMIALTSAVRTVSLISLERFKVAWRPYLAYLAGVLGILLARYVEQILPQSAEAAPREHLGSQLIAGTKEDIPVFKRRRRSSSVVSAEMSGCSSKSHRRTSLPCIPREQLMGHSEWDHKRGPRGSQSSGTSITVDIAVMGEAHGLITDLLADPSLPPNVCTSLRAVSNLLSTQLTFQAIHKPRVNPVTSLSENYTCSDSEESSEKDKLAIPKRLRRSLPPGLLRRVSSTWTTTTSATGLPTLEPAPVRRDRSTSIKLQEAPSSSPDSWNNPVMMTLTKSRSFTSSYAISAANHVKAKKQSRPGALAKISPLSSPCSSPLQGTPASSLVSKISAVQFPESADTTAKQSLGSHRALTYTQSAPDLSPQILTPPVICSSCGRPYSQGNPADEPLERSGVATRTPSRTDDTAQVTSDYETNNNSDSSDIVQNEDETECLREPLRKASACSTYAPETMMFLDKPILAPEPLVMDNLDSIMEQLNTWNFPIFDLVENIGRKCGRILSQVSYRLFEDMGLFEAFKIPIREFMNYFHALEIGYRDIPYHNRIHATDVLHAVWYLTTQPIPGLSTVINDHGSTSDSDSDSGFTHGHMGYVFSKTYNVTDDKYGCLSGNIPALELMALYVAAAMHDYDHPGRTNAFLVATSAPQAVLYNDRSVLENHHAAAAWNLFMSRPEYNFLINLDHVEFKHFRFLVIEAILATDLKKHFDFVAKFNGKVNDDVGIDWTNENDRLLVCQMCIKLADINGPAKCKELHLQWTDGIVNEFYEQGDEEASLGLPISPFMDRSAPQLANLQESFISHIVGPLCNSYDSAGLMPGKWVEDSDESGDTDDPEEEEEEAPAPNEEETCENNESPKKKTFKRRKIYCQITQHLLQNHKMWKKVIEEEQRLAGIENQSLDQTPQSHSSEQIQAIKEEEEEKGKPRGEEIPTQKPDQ

## CCOC(=O)c1c(C)nn(-c2cccc([N+](=O)[O-])c2)c1C [Example 2, 3,5-dimethyl-1-(3-nitrophenyl)-1H-pyrazole-4-carboxylic acid ethyl ester]
PDE1B
  IC50: 25.7 µM
PDE1C
  IC50: 30.2 µM
PDE3A
  IC50: 137 µM
PDE5
  IC50: 25.6 µM
Serum TNFα; 10 mg/kg
  % TNFQ Inhibition: 70%
Serum TNFα; 100 mg/kg
  % TNFQ Inhibition: 100%
